Reference: publication PMC8286599 (Gut Pathogens, 2021)
Where two headings read alike, the source gives them in different places.

Experiments:
[1] = system: MDR-EAEC strains; assay: MIC and MBC by broth microdilution with resazurin; assay type: cell-based, enteroaggregative Escherichia coli; details: infant diarrhoea isolate
Description: (§1) The characterised MDR field strains of EAEC (E1; E2; E3), S. Enteritidis (S1; S2; S3), and S. Typhimurium (ST1; ST2; ST3) maintained in the laboratory repository of Meat Safety Laboratory of ICAR-National Research Centre on Meat, Hyderabad re-validated using PCR assays were used to evaluate the in vitro antibacterial efficacy of phytochemicals. E. coli ATCC 25922 was used as the quality control strain.
(§2) The antimicrobial efficacy of identified phytochemicals against multi-drug resistant EAEC and NTS strains was determined by estimating the minimum inhibitory concentration (MIC) and minimum bactericidal concentrations (MBC).
(§3) Subsequent to the incubation period, resazurin dye (0.015 %) was added to all the wells to determine the dye reduction (pink) and thereby the bacterial inhibition.

[2] = system: MDR-S. Enteritidis strains; assay: MIC and MBC by broth microdilution with resazurin; assay type: cell-based, Salmonella Enteritidis; details: poultry droppings isolate
Description: as §1, §2, §3

[3] = system: MDR-S. Typhimurium strains; assay: MIC and MBC by broth microdilution with resazurin; assay type: cell-based, Salmonella Typhimurium; details: poultry droppings isolate
Description: as §1, §2, §3

[4] = Haemolytic assay; assay type: cell-based; details: read-out: Haemolysis; for hemolysis at 0.5 X MIC: 0.50X MIC
Experimental: (§4) The haemolytic assay of the individual phytochemical was performed by measuring the release of haemoglobin from sheep and human ‘O’ erythrocytes at 540 nm. The percentage of haemolysis was calculated as (Asample – APBS)/ (ATriton−X – APBS) ×100, in which Asample is the absorbance of phytochemical treatment, APBS is the absorbance of untreated control with PBS, and ATriton−X is the absorbance of lysed cells treated with Triton X-100 measured at 540 nm.

[5] = Haemolytic assay, text summary; assay type: cell-based; details: sheep and human, sheep and human 'O' erythrocytes; read-out: Haemolysis
Experimental: as §4

[6] = system: MDR-EAEC strains; assay: Stability assay, pH (MIC)
Description: (§5) To explore the utility of phytochemicals as therapeutic molecules and their stability, individual phytochemicals were exposed to cationic salts, and different pH levels followed by analysing their MIC and MBC values against test strains as described earlier.
(§6) Subsequent to exposure to varied conditions, the antimicrobial activity of the phytochemicals was estimated by determining their MIC and MBC values against all the selected MDR strains of EAEC, S. Enteritidis, and S. Typhimurium as described earlier.

[7] = system: MDR-S. Enteritidis strains; assay: Stability assay, pH (MIC)
Description: as §5, §6

[8] = system: MDR-S. Typhimurium strains; assay: Stability assay, pH (MIC)
Description: as §5, §6

[9] = system: MDR-EAEC strains; assay: Stability assay, cationic salts (MIC)
Description: as §5, §6

[10] = system: MDR-S. Enteritidis strains; assay: Stability assay, cationic salts (MIC)
Description: as §5, §6

[11] = system: MDR-S. Typhimurium strains; assay: Stability assay, cationic salts (MIC)
Description: as §5, §6

[12] = human 'O' erythrocytes, Human RBCs

Cc1ccc(C(C)C)cc1O [Carvacrol, carvacrol]
MBC ([1]; EAEC (E1)): 1.0 µl/ml | MIC ([1]; EAEC (E1)): 0.25 µl/ml | MBC ([1]; EAEC (E2)): 0.50 µl/ml | MIC ([1]; EAEC (E2)): 0.50 µl/ml | MBC ([1]; EAEC (E3)): 0.50 µl/ml | MIC ([1]; EAEC (E3)): 0.25 µl/ml | MBC ([2]; S. Enteritidis (S1)): 0.50 µl/ml | MIC ([2]; S. Enteritidis (S1)): 0.12 µl/ml | MBC ([2]; S. Enteritidis (S2)): 0.50 µl/ml | MIC ([2]; S. Enteritidis (S2)): 0.25 µl/ml | MBC ([2]; S. Enteritidis (S3)): 0.50 µl/ml | MIC ([2]; S. Enteritidis (S3)): 0.25 µl/ml | MBC ([3]; S. Typhimurium (ST1)): 0.50 µl/ml | MIC ([3]; S. Typhimurium (ST1)): 0.12 µl/ml | MBC ([3]; S. Typhimurium (ST2)): 0.50 µl/ml | MIC ([3]; S. Typhimurium (ST2)): 0.12 µl/ml | MBC ([3]; S. Typhimurium (ST3)): 0.50 µl/ml | MIC ([3]; S. Typhimurium (ST3)): 0.12 µl/ml | hemolysis at 0.25 X MIC [4, 12]: 2.66% | hemolysis at 0.5 X MIC [4, 12]: 4.88% | hemolysis at 1 X MIC [4, 12]: 11.2% | hemolysis at 2 X MIC [4, 12]: 57.2% | hemolysis at 4 X MIC [4, 12]: 82.1% | hemolysis at 8 X MIC [4, 12]: 92.7% | hemolysis at 0.25 X MIC ([4]; sheep erythrocytes, Sheep RBCs): 0% | hemolysis at 0.5 X MIC ([4]; sheep erythrocytes, Sheep RBCs): 0.773% | hemolysis at 1 X MIC ([4]; sheep erythrocytes, Sheep RBCs): 1.25% | hemolysis at 2 X MIC ([4]; sheep erythrocytes, Sheep RBCs): 75.7% | hemolysis at 4 X MIC ([4]; sheep erythrocytes, Sheep RBCs): 81.8% | hemolysis at 8 X MIC ([4]; sheep erythrocytes, Sheep RBCs): 86% | hemolysis [5]: 57 to 82% | MIC at given pH ([6]; pH 4, strain E1): 0.5 µl/ml | MIC at given pH ([6]; pH 4, strain E2): 1.0 µl/ml | MIC at given pH ([6]; pH 4, strain E3): 0.5 µl/ml | Change of MIC values at varied pH ([6]; pH 4.0 to 8.0, MDR-EAEC strains): two- to four-fold increase | MIC at given pH ([6]; pH 6, strain E1): 0.5 µl/ml | MIC at given pH ([6]; pH 6, strain E2): 1.0 µl/ml | MIC at given pH ([6]; pH 6, strain E3): 0.5 µl/ml | MIC at given pH ([6]; pH 8, strain E1): 0.5 µl/ml | MIC at given pH ([6]; pH 8, strain E2): 1.0 µl/ml | MIC at given pH ([6]; pH 8, strain E3): 0.5 µl/ml | MIC at given pH ([7]; pH 4, strain S1): 0.5 µl/ml | MIC at given pH ([7]; pH 4, strain S2): 0.5 µl/ml | MIC at given pH ([7]; pH 4, strain S3): 0.5 µl/ml | MIC at given pH ([7]; pH 6, strain S1): 0.5 µl/ml | MIC at given pH ([7]; pH 6, strain S2): 0.5 µl/ml | MIC at given pH ([7]; pH 6, strain S3): 0.5 µl/ml | MIC at given pH ([7]; pH 8, strain S1): 0.5 µl/ml | MIC at given pH ([7]; pH 8, strain S2): 0.5 µl/ml | MIC at given pH ([7]; pH 8, strain S3): 0.5 µl/ml | MIC at given pH ([8]; pH 4, strain ST1): 0.5 µl/ml | MIC at given pH ([8]; pH 4, strain ST2): 0.5 µl/ml | MIC at given pH ([8]; pH 4, strain ST3): 1.0 µl/ml | MIC at given pH ([8]; pH 6, strain ST1): 0.5 µl/ml | MIC at given pH ([8]; pH 6, strain ST2): 1.0 µl/ml | MIC at given pH ([8]; pH 6, strain ST3): 1.0 µl/ml | MIC at given pH ([8]; pH 8, strain ST1): 2.0 µl/ml | MIC at given pH ([8]; pH 8, strain ST2): 1.0 µl/ml | MIC at given pH ([8]; pH 8, strain ST3): 1.0 µl/ml | MIC with cationic salt ([9]; 2 mM MgCl2, strain E1): 0.5 µl/ml | MIC with cationic salt ([9]; 2 mM MgCl2, strain E2): 1.0 µl/ml | MIC with cationic salt ([9]; 2 mM MgCl2, strain E3): 1.0 µl/ml | Change of MIC values with cationic salts ([9]; 150 mM NaCl and 2 mM MgCl2, MDR-EAEC strains): two- to four-fold increase | MIC with cationic salt ([9]; 150 mM NaCl, strain E1): 1.0 µl/ml | MIC with cationic salt ([9]; 150 mM NaCl, strain E2): 1.0 µl/ml | MIC with cationic salt ([9]; 150 mM NaCl, strain E3): 1.0 µl/ml | MIC with cationic salt ([10]; 2 mM MgCl2, strain S1): 0.5 µl/ml | MIC with cationic salt ([10]; 2 mM MgCl2, strain S2): 0.5 µl/ml | MIC with cationic salt ([10]; 2 mM MgCl2, strain S3): 0.5 µl/ml | MIC with cationic salt ([10]; 150 mM NaCl, strain S1): 0.5 µl/ml | MIC with cationic salt ([10]; 150 mM NaCl, strain S2): 1.0 µl/ml | MIC with cationic salt ([10]; 150 mM NaCl, strain S3): 0.5 µl/ml | MIC with cationic salt ([11]; 2 mM MgCl2, strain ST1): 0.5 µl/ml | MIC with cationic salt ([11]; 2 mM MgCl2, strain ST2): 0.5 µl/ml | MIC with cationic salt ([11]; 2 mM MgCl2, strain ST3): 0.5 µl/ml | MIC with cationic salt ([11]; 150 mM NaCl, strain ST1): 0.5 µl/ml | MIC with cationic salt ([11]; 150 mM NaCl, strain ST2): 0.5 µl/ml | MIC with cationic salt ([11]; 150 mM NaCl, strain ST3): 0.5 µl/ml
